Measurements reported in article PMC12514245, “Impaired migration and lung invasion of human melanoma by a novel small molecule targeting the transmembrane domain of death receptor p75^NTR” (EMBO Molecular Medicine, 2025).
Several values for one entry are separate records, joined by “and”; a condition that tells them apart may be missing. Identical values can stand only once. Like-named read-outs stand apart in the source and are kept apart here.

How the values were obtained:
A875 NT cells = assay: Cell viability (Presto Blue), A875 NT; assay type: cell-based, human
Method: (§1) To measure the cytotoxic effect of Div17E5, A875 NT or shp75 cells were seeded at 2000 cells per well (in 100 μL DMEM) in a 96-well plate and incubated for 12 h. Next, Div17E5 at various concentrations was added and incubated at 37 °C in 5% CO2 for 2 days. Following treatment, 10 μL Presto Blue® (resazurin, ThermoFIsher) was added to each well of the 96-well plate and incubated for 2 h at 37 °C in 5% CO2. Cellular fluorescence in each well was measured at 535 nm excitation and 615 nm emission using a microtiter plate reader. Data was converted into the relative cell viability (%) from the fluorescence of cells in each treatment relative to that of the DMSO control group (set as 100%).

[1] = Cell viability (Presto Blue), A875 NT; assay type: cell-based, human; conditions: human, A875 NT cells, 2 days; for viability at 2 days, 1 uM: Div17E5 1 uM; for viability at 2 days, 1.5 uM: Div17E5 1.5 uM
Method: as §1

[2] = target: T1, full-length p75^NTR in COS cells (Rattus norvegicus, UniProt P07174); assay: Live cell homo-FRET anisotropy, wild-type p75NTR; assay type: cell-based; parameters: key to average anisotropy change, wt: fold change vs mean of 6 pre-treatment time points (baseline ≈ 100); conditions: for average anisotropy change, wt: 10 μM
T1 construct: COS cells expressing full length, GFP-tagged rat p75^NTR; expressed in transfected cells; host or cells: COS-7
T1 sequence (P07174 30-425): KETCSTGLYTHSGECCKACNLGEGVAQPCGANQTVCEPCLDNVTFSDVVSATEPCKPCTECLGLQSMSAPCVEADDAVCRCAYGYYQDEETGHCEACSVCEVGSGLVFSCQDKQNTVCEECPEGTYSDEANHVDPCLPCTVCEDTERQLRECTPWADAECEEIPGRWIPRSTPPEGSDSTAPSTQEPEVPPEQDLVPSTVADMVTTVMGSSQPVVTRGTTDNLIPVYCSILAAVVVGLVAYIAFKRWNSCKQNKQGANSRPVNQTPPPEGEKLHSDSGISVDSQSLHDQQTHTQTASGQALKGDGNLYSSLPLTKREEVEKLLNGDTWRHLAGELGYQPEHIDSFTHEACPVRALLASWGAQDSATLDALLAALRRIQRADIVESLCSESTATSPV
Excerpt: Previous real-time homo-FRET anisotropy studies by ours as well as other laboratories have shown that the intracellular death domains of p75^NTR are associated with each other (high FRET, low anisotropy state) under basal conditions (Vilar et al, [2009]; Sykes et al, [2012]), but neurotrophin binding induces transient separation of p75^NTR death domains (low FRET, high anisotropy state) manifested as oscillations in real-time anisotropy measurements (Lin et al, [2015]; Tanaka et al, [2016]; Goh et al, [2018]). COS cells expressing full length, GFP-tagged rat p75^NTR were treated with vehicle or Div17E5 and changes in anisotropy levels were recorded over time.
Anisotropy imaging in COS-7 cells that were transfected with a rat p75^NTR-EGFP* fusion construct was done as previously described (Goh, Lin et al, [2018]). EGFP* carries a […] mutation rendering monomeric EGFP. Changes in anisotropy were expressed as fold change at each time point (every 30 s) in comparison to the mean of 6 time points obtained prior to addition of treatment. Images were acquired using Nikon Ti-E based live cell epi-fluorescence microscope and MetaMorph software and analyzed using MatLab from Mathworks.

[3] = N=3, read-out: Cell Viability, Mean
[4] = read-out: Cell Viability, n1-n3

In the case of `Oc1ccc(-c2cncc(Nc3ccc(Br)c(Cl)c3)n2)cc1` [Div17E5], the “Cell Viability, n1-n3” value (A875 NT cells; Div17E5 0.5 uM, 2 days) is reported as 76%, the “Cell Viability, n1-n3” value (A875 NT cells; Div17E5 1 uM, 2 days) is reported as 69% and 80% and the “Cell Viability, n1-n3” value (A875 NT cells; Div17E5 1.5 uM, 2 days) is reported as 66%. For the same compound, the “Cell Viability, n1-n3” value (A875 NT cells; Div17E5 2.5 uM, 2 days) was 61% and 52%, the “Cell Viability, n1-n3” value (A875 NT cells; Div17E5 5 uM, 2 days) was 51% and 57% and the “Cell Viability, n1-n3” value (A875 NT cells; Div17E5 7.5 uM, 2 days) was 44% and 51%. For the same compound, the “Cell Viability, n1-n3” value (A875 NT cells; Div17E5 10 uM, 2 days) was 39% and 42%, the viability at 0.5 µM (A875 NT cells; Homo sapiens, A875, 48 h, Div17E5 0.5 uM, 2 days, read-out: Cell Viability, n1-n3) was 85% and the viability at 2 µM (A875 NT cells; Homo sapiens, A875, 48 h, Div17E5 2 uM, 2 days, read-out: Cell Viability, n1-n3) was 67%. It also gave a viability at 2.5 µM (A875 NT cells; Homo sapiens, A875, 48 h, Div17E5 2.5 uM, 2 days, N=3, read-out: Cell Viability, Mean) of 59%, a viability at 2.5 µM (A875 NT cells; Homo sapiens, A875, 48 h, Div17E5 2.5 uM, 2 days, read-out: Cell Viability, n1-n3) of 65% and a viability at 5 µM (A875 NT cells; Homo sapiens, A875, 48 h, Div17E5 5 uM, 2 days, N=3, read-out: Cell Viability, Mean) of 55%. For the same compound, the viability at 5 µM (A875 NT cells; Homo sapiens, A875, 48 h, Div17E5 5 uM, 2 days, read-out: Cell Viability, n1-n3) was 58%, the viability at 7.5 µM (A875 NT cells; Homo sapiens, A875, 48 h, Div17E5 7.5 uM, 2 days, N=3, read-out: Cell Viability, Mean) was 50% and the viability at 7.5 µM (A875 NT cells; Homo sapiens, A875, 48 h, Div17E5 7.5 uM, 2 days, read-out: Cell Viability, n1-n3) was 55%. For the same compound, the viability at 10 µM (A875 NT cells; Homo sapiens, A875, 48 h, Div17E5 10 uM, 2 days, read-out: Cell Viability, n1-n3) was 49%, the cell viability (A875 NT cells; above 10 μM) was “sensitive” and the cell viability (A875 NT cells; dose-dependent) was “decreased viability”. It also gave a viability at 2 days, 0.5 uM ([1]; Div17E5 0.5 uM, N=3) of 79%, a viability at 2 days, 1 uM [1, 3] of 75% and a viability at 2 days, 1 uM [1, 4] of 77%. The viability at 2 days, 1.5 uM [1, 3] was 65%, the viability at 2 days, 1.5 uM [1, 4] was 71% and the “real-time homo-FRET anisotropy” value ([2]; 10 µM) was “induced oscillations in real-time anisotropy”. The “average anisotropy change, wt” value ([2]; 0 min after compound addition) was 106, the “average anisotropy change, wt” value ([2]; 0.5 min after compound addition) was 88 and the “average anisotropy change, wt” value ([2]; 1 min after compound addition) was 110. For the same compound, the “average anisotropy change, wt” value ([2]; 1.5 min after compound addition) was 101, the “average anisotropy change, wt” value ([2]; 2 min after compound addition) was 115 and the “average anisotropy change, wt” value ([2]; 2.5 min after compound addition) was 82. For the same compound, the “average anisotropy change, wt” value ([2]; 3 min after compound addition) was 112, the “average anisotropy change, wt” value ([2]; 3.5 min after compound addition) was 105 and the “average anisotropy change, wt” value ([2]; 4 min after compound addition) was 80. The “average anisotropy change, wt” value ([2]; 4.5 min after compound addition) was 111, the “average anisotropy change, wt” value ([2]; 5 min after compound addition) was 83 and the “average anisotropy change, wt” value ([2]; 5.5 min after compound addition) was 99. For the same compound, the “average anisotropy change, wt” value ([2]; 6 min after compound addition) was 121, the “average anisotropy change, wt” value ([2]; 6.5 min after compound addition) was 122 and the “average anisotropy change, wt” value ([2]; 7 min after compound addition) was 100. The “average anisotropy change, wt” value ([2]; 7.5 min after compound addition) was 100, the “average anisotropy change, wt” value ([2]; 8 min after compound addition) was 74 and the “average anisotropy change, wt” value ([2]; 8.5 min after compound addition) was 96. The “average anisotropy change, wt” value ([2]; 9 min after compound addition) was 96, the “average anisotropy change, wt” value ([2]; 9.5 min after compound addition) was 103 and the “average anisotropy change, wt” value ([2]; 10 min after compound addition) was 99. For the same compound, the “average anisotropy change, wt” value ([2]; 10.5 min after compound addition) was 110, the “average anisotropy change, wt” value ([2]; 11 min after compound addition) was 95 and the “average anisotropy change, wt” value ([2]; 11.5 min after compound addition) was 89. For the same compound, the “average anisotropy change, wt” value ([2]; 12 min after compound addition) was 110, the “average anisotropy change, wt” value ([2]; 12.5 min after compound addition) was 95 and the “average anisotropy change, wt” value ([2]; 13 min after compound addition) was 108. The “average anisotropy change, wt” value ([2]; 13.5 min after compound addition) was 110, the “average anisotropy change, wt” value ([2]; 14 min after compound addition) was 100 and the “average anisotropy change, wt” value ([2]; 14.5 min after compound addition) was 105. For the same compound, the “average anisotropy change, wt” value ([2]; 15 min after compound addition) was 94, the “average anisotropy change, wt” value ([2]; -0.5 min after compound addition) was 104 and the “average anisotropy change, wt” value ([2]; -1 min after compound addition) was 103. The “average anisotropy change, wt” value ([2]; -1.5 min after compound addition) was 97, the “average anisotropy change, wt” value ([2]; -2 min after compound addition) was 101 and the “average anisotropy change, wt” value ([2]; -2.5 min after compound addition) was 97. For the same compound, the “average anisotropy change, wt” value ([2]; -3 min after compound addition) was 98.
